# Values quoted from earlier work as cited in US7972633B2, “Nutritional supplements for healthy memory and mental function” (Applied Cognitive Sciences, LLC, priority 2007, dated 2011).
# What was measured:
# [1] = tested on: healthy adults who have no evidence of cerebral dysfunction; details: two days' supplementation with 10, 20 or 40 mg daily, compared to placebo
# [2] = tested on: patients with mild to moderate transient or permanent impairment of cognitive performance; details: 10 or 20 mg three times a day for 16 weeks, compared to placebo
smiles,measurement,setting,value
"CCOC(=O)C1=C[C@]2(CC)CCCN3CCc4c(n1c1ccccc41)[C@@H]32 [vinpocetine, Vinpocetine]","ability to distinguish discrete sensory data, reaction time, short-term memory functions",[1],significantly greater extent than placebo
same,"concentration, memory and severity of illness",[2],"significant improvements in concentration, memory, and reduced severity of illness"
